Legend:
[1] = Solubility of ICG in dichloromethane when phospholipid was added; format: physicochemical; conditions: phospholipid not added; inferred by comparison with ICG-methanol solution
Procedure: 2 molar equivalents of a phospholipid was added to 5.5 mg of ICG. As the phospholipid, DSPC or DOPE was used. Each of these ICG-phospholipid mixtures was dissolved in 2 mL of dichloromethane. Controls were brepared by dissolving in 10 G in methanol or dichloromethane. All these 10 G solutions were filtered with a filter having a pore size of 0.2 μm and then diluted 500-fold with dichloromethane.

[2] = Composition ratio of DSPC and ICG: ICG dissolved in chloroform; format: physicochemical; conditions: 47.2 mM DSPC in the ICG chloroform solution
Procedure: 0.5, 1 or 2 Molar Equivalents of DSPC was Added to 55 mg of ICG.
3 mL of chloroform was added to each of these ICG-DSPC mixtures. The mixtures were heated at 40° C. for two minutes, and ultrasonic irradiation was performed for one minute. […] These suspensions were filtered with a filter having a pore size of 0.45 μm to remove insoluble matters. Each of the filtrates was diluted 3000-fold with methanol.

CC1(C)C(/C=C/C=C/C=C/C=C2/N(CCCCS(=O)(=O)[O-])c3ccc4ccccc4c3C2(C)C)=[N+](CCCCS(=O)(=O)[O-])c2ccc3ccccc3c21.[Na+] [ICG, indocyanine green]
ICG dissolved in dichloromethane [1]: approximately 0.6 mM | concentration of ICG dissolved [2]: 15700 µM

Source: patent US20120052017A1, “METHOD FOR PRODUCING CONTRAST AGENT FOR OPTICAL IMAGING” (CANON KABUSHIKI KAISHA, priority 2010, published 2012)
